Experimental data taken from patent US9155784B2, “Anti-TNF-α therapy for the mucopolysaccharidoses and other lysosomal disorders” (Icahn School of Medicine at Mount Sinai, priority 2011, dated 2015).

Columns and labels:
[1] = test system: MPS VI rats; test: Skull and snout appearance, radiographs and microCT in PPS treated MPS VI rats; type: in vivo, rat
Experimental: FIGS. 6A-6D show results of MPS VI rats treated with PPS. MPS VI rats were maintained on normal watering (FIG. 6A) or with water containing 25 mg/day PPS (n=6/group) (FIG. 6B). Animals were 6 months of age when treatment began, and treatment was carried out for 3 months. Skull and snout images were taken at the end of treatment. Representative images are shown. Skull length and width measurements also were determined from the radiographs for each of the animals, and the data are shown in the bar graph (FIGS. 6C, 6D). White=normal 9 month old, Gray=MPS VI rats on normal water; Blue=MPS VI rats receiving PPS. *=p<0.01.
FIGS. 7A-7F show skull radiographs (FIGS. 7A, 7B, 7C) and microCT images (FIGS. 7D, 7E, 7F) of normal rats (FIGS. 7A, 7D), MPS VI rats with PPS treatment (FIGS. 7C, 7F), and MPS VI rats without PPS treatment (FIGS. 7B, 7E). MPS VI rats were maintained on normal watering or with water containing 25 mg/day PPS (n=6/group). Animals were 6 months of age when treatment was begun, and treatment was carried out for 3 months. The top images show radiographs (FIGS. 7A, 7B, 7C), and the bottom images microCT images (FIGS. 7D, 7E, 7F). Longer snouts and thinner skulls were found in the MPS VI rats treated with PPS compared to untreated MPS VI. The lines in the radiographs are for reference. The quantitative data shown in FIGS. 6A-6D on skull length and width were measured from these radiographs.
In order to develop “proof-of-principle” data, six MPS VI rats at 6 months of age were treated with PPS for 3 months. 6-month-old MPS VI rats have established bone, cartilage, and inflammatory disease, and the specific goal in this initial study was therefore to evaluate whether PPS could either slow or reverse any of the clinical or pathological findings in MPS animals with advanced disease. […] As illustrated by FIGS. 7A-7F skull radiographs and microCT images were taken of normal rats (FIGS. 7A, 7D), MPS VI rats with PPS treatment (FIGS. 7C, 7F), and MPS VI rats without PPS treatment (FIGS. 7B, 7E). […] The images shown are representative of the general observations on these animals.

[2] = test system: MPS VI rats; test: Tracheas of MPS VI rats treated with PPS; type: in vivo, rat; conditions: all PPS treatment groups (start 6 months, 1 month, prenatally), sacrificed at 9 months
Experimental: FIG. 13 illustrates tracheas of MPS VI rats treated with PPS. Groups 1, 2 and 3 animals were treated with PPS beginning at 6 months, 1 month, and prenatally. They were sacrificed at 9 months and the tracheas were isolated.

[3] = test system: MIP-1α, Rantes, TNF-α; test: Serum inflammatory markers by ELISA in PPS treated MPS VI rats; type: in vivo, rat
Experimental: (§1) FIGS. 10A-10B illustrate immunohistochemical analysis of PPS treated and untreated rats.
FIGS. 11A-11C show serum inflammatory markers in treated and untreated MPS VI rats. Three groups of MPS VI rats were treated with PPS beginning at six months (light gray), one month (dark gray) or prenatally (black). All animals were sacrificed at 9 months of age. The duration of treatment was therefore 3 months, 8 months or 9.75 months, respectively. The serum levels of several inflammatory markers were measured by ELISA assays, and compared to normal (hatched) or untreated MPS VI animals (white). N=6/group. Serum levels of inflammatory marker MIP-1α is shown in FIG. 11A, while levels of marker Rantes is shown in FIG. 11B and levels of TNF-α are shown in FIG. 11C.
(§2) Immediately prior to sacrifice, the animals also were studied using an accelerating rotarod apparatus. […] It was hypothesized that this reflects either increased joint mobility and/or reduced inflammation and pain in the treatment group. […] Serum levels of inflammatory marker MIP-1α is shown in FIG. 11A, while levels of marker Rantes is show in FIG. 11B and levels of TNF-α are shown in FIG. 11C.

[4] = test system: articular chondrocytes; test: Western blotting of articular chondrocytes from PPS treated MPS VI rats; type: in vivo, rat; conditions: western blot, PPS groups 1-3, sacrificed at 9 months
Experimental: Groups 1, 2 and 3 animals were treated with PPS beginning at 6 months, 1 month and prenatally. They were sacrificed at 9 months and articular chondrocytes were isolated and grown for 3 weeks. They were then analyzed by western blotting. […] ADAMTS-5 is a proteeoglycan-degrading aggrecanase that also is elevated in untreated MPS VI rat chondrocytes, and was reduced in the MPS VI treatment groups.

[5] = test system: MPS VI rats; test: Spine disease: disc height index from sagittal radiographs, PPS treated MPS VI rats; type: in vivo, rat; conditions: PPS treatment of skeletally mature animals (6 months of age)
Experimental: FIGS. 14A-14C show an assessment of spine disease in the treated (6 month old) and untreated MPS VI rats.
Lastly, spine disease in the treated (6 month old) and untreated MPS VI rats was assessed. These studies have documented several important and clinically relevant endpoints that can be followed during PPS treatment. Histologically, MPS VI discs had abundant, enlarged vacuolated nuclear and annular cells as well as thickened annulus layers, focal defects in the nucleus pulposus, and increased disc height as compared to control discs (FIG. 14A). […] ADAMTS-5 is a proteoglycan-degrading aggrecanase that also is elevated in untreated MPS VI rat chondrocytes, but was reduced in the MPS VI treatment groups (FIG. 15).

[6] = test system: Niemann-Pick disease mice (acid sphingomyelinase knock-out); test: Rotarod analysis of Niemann-Pick disease mice treated with PPS; type: in vivo, mouse; conditions: 25 mg/kg/day for three months from one month of age; 20 RPM; p<0.01; remained below wild-type
Experimental: One-month-old Niemann-Pick disease mice (acid sphingomyelinase knock-out) were treated with PPS for three months beginning at one month of age (25 mg/kg/day). They were then analyzed using an accelerating rotarod apparatus set to 20 RPM.

[7] = test system: MPS VI rats; test: MicroCT of dentition in PPS treated MPS VI rats; type: in vivo, rat; conditions: PPS 25 mg/day, start at 6 months of age, 3 months
Experimental: FIGS. 8A-8F show microCT images of normal rats (FIGS. 8A, 8B) MPS VI rats with PPS treatment (FIGS. 8E, 8F) and without PPS treatment (FIGS. 8C, 8D) showing dentition changes. MPS VI rats were maintained on normal watering or with water containing 25 mg/day PPS (n=6/group). Animals were 6 months of age when treatment was begun, and treatment was carried out for 3 months. Untreated MPS VI rats have overgrown incisors (box) that leads to abnormal alignment of the teeth compared to normal rats. The mandible and misalignment were corrected by PPS treatment.
Untreated MPS VI rats have overgrown incisors (box) (FIGS. 8C, 8D) that leads to abnormal alignment of the teeth compared to normal rats. The mandible and misalignment were corrected by PPS treatment (FIGS. 8E, 8F).

[8] = test system: MPS VI rats; test: Accelerating rotarod of PPS treated MPS VI rats; type: in vivo, rat
Experimental: FIG. 9 depicts rotarod analysis of MPS VI rats with and without PPS. Six-month-old MPS VI rats were maintained with or without PPS for 3 months (n=6/group), and prior to sacrifice were analyzed using an accelerating rotarod apparatus. Gray=MPS VI rats on normal water; Blue=MPS VI rats receiving PPS.
FIGS. 12A-12C show results of treatment of MPS VI rats at one month of age. In FIGS. 12A and 12B, one-month old MPS VI rats were maintained for eight months on normal water or with water containing 25 mg/day PPS (n=6/group). Representative images are shown. Arrows indicate ocular porphyrin secretions, wide broad skull and snout and small ears in the untreated, with marked improvement in the treated animal. In FIG. 12C, animals were tested on an accelerating rotarod apparatus. […] In addition, only normal and treated rats were able to remain on the rotating rod at speeds up to 35 RPM (60% of normal).
as §2

[9] = test system: TNF-α; test: Immunohistochemical analysis of TNF-α in liver and spleen of PPS treated MPS VI rats; type: in vivo, rat; conditions: PPS start at 6 months, 9-month-old animals, vs untreated
Source text: as §1, §2

[10] = PPS 25 mg/day in water, start at 6 months of age, 3 months, vs untreated MPS VI
[11] = all treatment groups (start 6 months, 1 month or prenatally), sacrificed at 9 months, vs untreated

Pentosan polysulfate [PPS]
skull length [1, 10]: significantly longer | skull width [1, 10]: thinner | snout length [1, 10]: significantly longer | facial appearance, skull length, eye and nasal secretions, and motility ([1]; PPS start at 1 month of age, 8 months): significant effect | ocular porphyrin secretions ([1]; PPS start at 6 months of age, 3 months, vs untreated MPS VI): markedly fewer | collapsed tracheas [2]: improved | serum TNF levels ([3]; PPS start at 6 months, 9-month-old animals, vs untreated (FIG. 10B)): decreased | serum MIP-1α level [3, 11]: significantly (<0.001) lower | serum Rantes level [3, 11]: significantly (<0.001) lower | serum TNF-α level [3, 11]: significantly (<0.001) lower | ADAMTS-5 in articular chondrocytes [4]: reduced | Cox-2 in articular chondrocytes [4]: reduced to normal | TNF-α in articular chondrocytes [4]: reduced to normal | p38 in articular chondrocytes [4]: reduced to normal | disc height index (DHI) [5]: did not influence | rotarod performance versus untreated NPD mice [6]: significantly better | mandible and misalignment of the teeth [7]: corrected | time on the rotating rod versus untreated ([8]; PPS start at 1 month of age, 8 months, 20 RPM): more than twice as long | rotarod performance at speeds up to 35 RPM ([8]; PPS start at 1 month of age, 8 months, untreated unable to remain): 60 % of normal | time on the rotating rod versus untreated ([8]; PPS start at 6 months of age, 3 months, p<0.02): more than twice as long | TNF-α expression in liver and spleen [9]: decreased
